Measured values taken from patent US6426369B1, “Oxethazaine as antimicrobial agent” (Eisai Co., Ltd., priority 1997, dated 2002).

Tested on: H. pylori
Assay: Antimicrobial activity test 6: oxethazaine in combination with an antibiotic (AMPC, CAM, RXM), checker board method
Format: cell-based, Helicobacter pylori
Set-up: key to growth of H. pylori: “−” indicates the inhibited growth of H. pylori (presence of antimicrobial activity); “+” indicates the growth of H. pylori (absence of antimicrobial activity)
Excerpt: The effect of combined use with amoxicillin (AMPC), clarithromycin (CAM) or roxithromycin (RXM) was examined in the same manner as in antimicrobial activity test 1, using the checker board method.

[1] = combined use with oxethazaine, out of 15 strains (AMPC), 21 strains (CAM), 22 strains (RXM)

CC[C@H]1OC(=O)[C@H](C)[C@@H](O[C@H]2C[C@@](C)(OC)[C@@H](O)[C@H](C)O2)[C@H](C)[C@@H](O[C@@H]2O[C@H](C)C[C@H](N(C)C)[C@H]2O)[C@](C)(OC)C[C@@H](C)C(=O)[C@H](C)[C@@H](O)[C@]1(C)O [clarithromycin]
growth of H. pylori (89-355, oxethazaine 0 + CAM 0.006 μg/ml): + | growth of H. pylori (89-355, oxethazaine 0 + CAM 0.012 μg/ml): + | growth of H. pylori (89-355, oxethazaine 0 + CAM 0.024 μg/ml): + | growth of H. pylori (89-355, oxethazaine 0 + CAM 0.05 μg/ml): + | growth of H. pylori (89-355, oxethazaine 0 + CAM 0.1 μg/ml): − | growth of H. pylori (89-355, oxethazaine 0 + CAM 0.2 μg/ml): − | growth of H. pylori (89-355, oxethazaine 0 + CAM 0.4 μg/ml): − | growth of H. pylori (89-355, oxethazaine 0 + CAM 0.8 μg/ml): − | growth of H. pylori (89-355, oxethazaine 0 + CAM 1.56 μg/ml): − | growth of H. pylori (89-355, oxethazaine 0 + CAM 3.13 μg/ml): − | growth of H. pylori (89-355, oxethazaine 0 + CAM 6.25 μg/ml): − | growth of H. pylori (89-355, oxethazaine 0 + CAM 12.5 μg/ml): − | growth of H. pylori (89-355, oxethazaine 0 + CAM 25 μg/ml): − | growth of H. pylori (89-355, oxethazaine 0 + CAM 50 μg/ml): − | growth of H. pylori (89-355, oxethazaine 0 + CAM 100 μg/ml): − | growth of H. pylori (89-357, oxethazaine 0 + CAM 0.006 μg/ml): + | growth of H. pylori (89-357, oxethazaine 0 + CAM 0.012 μg/ml): + | growth of H. pylori (89-357, oxethazaine 0 + CAM 0.024 μg/ml): + | growth of H. pylori (89-357, oxethazaine 0 + CAM 0.05 μg/ml): − | growth of H. pylori (89-357, oxethazaine 0 + CAM 0.1 μg/ml): − | growth of H. pylori (89-357, oxethazaine 0 + CAM 0.2 μg/ml): − | growth of H. pylori (89-357, oxethazaine 0 + CAM 0.4 μg/ml): − | growth of H. pylori (89-357, oxethazaine 0 + CAM 0.8 μg/ml): − | growth of H. pylori (89-357, oxethazaine 0 + CAM 1.56 μg/ml): − | growth of H. pylori (89-357, oxethazaine 0 + CAM 3.13 μg/ml): − | growth of H. pylori (89-357, oxethazaine 0 + CAM 6.25 μg/ml): − | growth of H. pylori (89-357, oxethazaine 0 + CAM 12.5 μg/ml): − | growth of H. pylori (89-357, oxethazaine 0 + CAM 25 μg/ml): − | growth of H. pylori (89-357, oxethazaine 0 + CAM 50 μg/ml): − | growth of H. pylori (89-357, oxethazaine 0 + CAM 100 μg/ml): − | growth of H. pylori (90-388, oxethazaine 0 + CAM 0.006 μg/ml): + | growth of H. pylori (90-388, oxethazaine 0 + CAM 0.012 μg/ml): + | growth of H. pylori (90-388, oxethazaine 0 + CAM 0.024 μg/ml): + | growth of H. pylori (90-388, oxethazaine 0 + CAM 0.05 μg/ml): + | growth of H. pylori (90-388, oxethazaine 0 + CAM 0.1 μg/ml): − | growth of H. pylori (90-388, oxethazaine 0 + CAM 0.2 μg/ml): − | growth of H. pylori (90-388, oxethazaine 0 + CAM 0.4 μg/ml): − | growth of H. pylori (90-388, oxethazaine 0 + CAM 0.8 μg/ml): − | growth of H. pylori (90-388, oxethazaine 0 + CAM 1.56 μg/ml): − | growth of H. pylori (90-388, oxethazaine 0 + CAM 3.13 μg/ml): − | growth of H. pylori (90-388, oxethazaine 0 + CAM 6.25 μg/ml): − | growth of H. pylori (90-388, oxethazaine 0 + CAM 12.5 μg/ml): − | growth of H. pylori (90-388, oxethazaine 0 + CAM 25 μg/ml): − | growth of H. pylori (90-388, oxethazaine 0 + CAM 50 μg/ml): − | growth of H. pylori (90-388, oxethazaine 0 + CAM 100 μg/ml): − | growth of H. pylori (90-390, oxethazaine 0 + CAM 0.006 μg/ml): + | growth of H. pylori (90-390, oxethazaine 0 + CAM 0.012 μg/ml): + | growth of H. pylori (90-390, oxethazaine 0 + CAM 0.024 μg/ml): + | growth of H. pylori (90-390, oxethazaine 0 + CAM 0.05 μg/ml): + | growth of H. pylori (90-390, oxethazaine 0 + CAM 0.1 μg/ml): − | growth of H. pylori (90-390, oxethazaine 0 + CAM 0.2 μg/ml): − | growth of H. pylori (90-390, oxethazaine 0 + CAM 0.4 μg/ml): − | growth of H. pylori (90-390, oxethazaine 0 + CAM 0.8 μg/ml): − | growth of H. pylori (90-390, oxethazaine 0 + CAM 1.56 μg/ml): − | growth of H. pylori (90-390, oxethazaine 0 + CAM 3.13 μg/ml): − | growth of H. pylori (90-390, oxethazaine 0 + CAM 6.25 μg/ml): − | growth of H. pylori (90-390, oxethazaine 0 + CAM 12.5 μg/ml): − | growth of H. pylori (90-390, oxethazaine 0 + CAM 25 μg/ml): − | growth of H. pylori (90-390, oxethazaine 0 + CAM 50 μg/ml): − | growth of H. pylori (90-390, oxethazaine 0 + CAM 100 μg/ml): − | growth of H. pylori (EH 12, oxethazaine 0 + CAM 0.006 μg/ml): + | growth of H. pylori (EH 12, oxethazaine 0 + CAM 0.012 μg/ml): + | growth of H. pylori (EH 12, oxethazaine 0 + CAM 0.024 μg/ml): + | growth of H. pylori (EH 12, oxethazaine 0 + CAM 0.05 μg/ml): − | growth of H. pylori (EH 12, oxethazaine 0 + CAM 0.1 μg/ml): − | growth of H. pylori (EH 12, oxethazaine 0 + CAM 0.2 μg/ml): − | growth of H. pylori (EH 12, oxethazaine 0 + CAM 0.4 μg/ml): − | growth of H. pylori (EH 12, oxethazaine 0 + CAM 0.8 μg/ml): − | growth of H. pylori (EH 12, oxethazaine 0 + CAM 1.56 μg/ml): − | growth of H. pylori (EH 12, oxethazaine 0 + CAM 3.13 μg/ml): − | growth of H. pylori (EH 12, oxethazaine 0 + CAM 6.25 μg/ml): − | growth of H. pylori (EH 12, oxethazaine 0 + CAM 12.5 μg/ml): − | growth of H. pylori (EH 12, oxethazaine 0 + CAM 25 μg/ml): − | growth of H. pylori (EH 12, oxethazaine 0 + CAM 50 μg/ml): − | growth of H. pylori (EH 12, oxethazaine 0 + CAM 100 μg/ml): − | growth of H. pylori (EH 13, oxethazaine 0 + CAM 0.006 μg/ml): + | growth of H. pylori (EH 13, oxethazaine 0 + CAM 0.012 μg/ml): + | growth of H. pylori (EH 13, oxethazaine 0 + CAM 0.024 μg/ml): − | growth of H. pylori (EH 13, oxethazaine 0 + CAM 0.05 μg/ml): − | growth of H. pylori (EH 13, oxethazaine 0 + CAM 0.1 μg/ml): − | growth of H. pylori (EH 13, oxethazaine 0 + CAM 0.2 μg/ml): − | growth of H. pylori (EH 13, oxethazaine 0 + CAM 0.4 μg/ml): − | growth of H. pylori (EH 13, oxethazaine 0 + CAM 0.8 μg/ml): − | growth of H. pylori (EH 13, oxethazaine 0 + CAM 1.56 μg/ml): − | growth of H. pylori (EH 13, oxethazaine 0 + CAM 3.13 μg/ml): − | growth of H. pylori (EH 13, oxethazaine 0 + CAM 6.25 μg/ml): − | growth of H. pylori (EH 13, oxethazaine 0 + CAM 12.5 μg/ml): − | growth of H. pylori (EH 13, oxethazaine 0 + CAM 25 μg/ml): − | growth of H. pylori (EH 13, oxethazaine 0 + CAM 50 μg/ml): − | growth of H. pylori (EH 13, oxethazaine 0 + CAM 100 μg/ml): − | additive effect, number of strains [1]: 17 strains/ | synergism, number of strains [1]: 5 strains/ | growth of H. pylori (strain 90-397, CAM 0.006 μg/ml, oxethazaine μg/ml: 100, 50, 25, 12.5, 6.25, 3.13, 0): + | growth of H. pylori (strain 90-397, CAM 0.012 μg/ml, oxethazaine μg/ml: 100, 50, 25, 12.5, 6.25, 3.13, 0): + | growth of H. pylori (strain 90-397, CAM 0.024 μg/ml, oxethazaine μg/ml: 100, 50, 25, 12.5, 6.25, 3.13, 0): + | growth of H. pylori (strain 90-397, CAM 0.05 μg/ml, oxethazaine μg/ml: 100, 50, 25, 12.5, 6.25, 3.13, 0): + | growth of H. pylori (strain 90-397, CAM 0.1 μg/ml, oxethazaine μg/ml: 100, 50, 25, 12.5, 6.25, 3.13, 0): + | growth of H. pylori (strain 90-397, CAM 0.2 μg/ml, oxethazaine μg/ml: 100, 50, 25, 12.5, 6.25, 3.13, 0): + | growth of H. pylori (strain 90-397, CAM 12.5 μg/ml, oxethazaine μg/ml: 100, 50, 25, 12.5, 6.25, 3.13, 0): − | growth of H. pylori (strain 90-397, CAM 25 μg/ml, oxethazaine μg/ml: 100, 50, 25, 12.5, 6.25, 3.13, 0): − | growth of H. pylori (strain 90-397, CAM 50 μg/ml, oxethazaine μg/ml: 100, 50, 25, 12.5, 6.25, 3.13, 0): − | growth of H. pylori (strain 90-397, CAM 100 μg/ml, oxethazaine μg/ml: 100, 50, 25, 12.5, 6.25, 3.13, 0): −
